Values quoted from earlier work, collected in US20230118497A1, “PYRAZOLE-CONTAINING POLYCYCLIC DERIVATIVE INHIBITOR, PREPARATION METHOD THEREFOR AND APPLICATION THEREOF” (Shanghai Hansoh Biomedical Co., Ltd., priority 2019, published 2023).

Assays:
[1] = phase 2 RELIEF trial, patients with refractory chronic cough, any dose; cited from earlier work
P2X3/P2X2/3 = conditions: background; cited from earlier work
[2] = phase I clinical trials; cited from earlier work

Question: Which “primary endpoint of placebo-adjusted reduction in cough frequency” value [1] does the source give for `CNC(=O)c1cc(F)c(-c2nc3cc(C)ccn3c2C[C@H]2CN(C(=O)OC)CCO2)c(F)c1` [BLU5937] here?
Answer: The value was “failed to achieve statistical significance”.

Question: And the “selectivity to P2X3/P2X2/3” value (P2X3/P2X2/3)?
Answer: Its value is “high selectivity”.

Question: What about the side effects [2] of the same compound?
Answer: Its side effects is “no side effects such as taste side effects appeared”.
